Values quoted from earlier work as cited in US9877974B2, “Topical formulations comprising a steroid” (Dr. Reddy's Laboratories Ltd., priority 2009, dated 2018).

In the case of CCC(=O)OCC(=O)[C@@]1(OC(=O)CC)[C@@H](C)C[C@H]2[C@@H]3CCC4=CC(=O)C=C[C@]4(C)[C@@]3(F)[C@@H](O)C[C@@]21C [Betamethasone dipropionate, 9-fluoro-11(β),17,21-trihydroxy-16(β)-methylpregna-1,4-diene-3,20-dione 17,21-dipropionate], the Solubility in acetone (acetone) is given as “freely soluble”, the Solubility in chloroform (chloroform) is given as “freely soluble” and the Solubility in ethanol (ethanol) is given as “sparingly soluble”. For the same molecule, the Solubility in water (water) was “practically insoluble”.
